From patent US11247987B2, “Inhibiting ubiquitin specific peptidase 30” (FORMA Therapeutics, Inc., priority 2017, dated 2022) come the findings set out here.

The experiment deals with T1, human recombinant USP30 (Homo sapiens, UniProt Q70CQ3).
T1 construct: purchased Boston Biochem E-582
T1 sequence (Q70CQ3 1-517): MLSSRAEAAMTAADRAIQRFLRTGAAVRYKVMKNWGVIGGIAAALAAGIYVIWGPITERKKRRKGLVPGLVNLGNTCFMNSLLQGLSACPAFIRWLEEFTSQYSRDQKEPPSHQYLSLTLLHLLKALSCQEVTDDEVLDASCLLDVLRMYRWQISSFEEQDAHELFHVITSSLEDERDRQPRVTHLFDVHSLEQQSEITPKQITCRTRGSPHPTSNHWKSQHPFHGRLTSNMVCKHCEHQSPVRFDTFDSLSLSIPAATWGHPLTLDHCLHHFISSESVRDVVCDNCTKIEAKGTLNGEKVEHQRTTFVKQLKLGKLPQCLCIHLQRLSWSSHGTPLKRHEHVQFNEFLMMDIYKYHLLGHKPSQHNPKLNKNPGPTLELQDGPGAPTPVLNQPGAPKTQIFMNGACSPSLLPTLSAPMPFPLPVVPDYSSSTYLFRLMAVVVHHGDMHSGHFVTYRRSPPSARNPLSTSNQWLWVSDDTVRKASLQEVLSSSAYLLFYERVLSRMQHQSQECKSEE
As to the kind of experiment: Ubiquitin-Rhodamine 110 Assay for USP30 Activity (USP30 Inhibitor Biochemical Assay). As to conditions: 0.2 nM USP30, 25 nM Ub-Rh110, 30 min preincubation, 30 min at room temperature; read-out: USP30 potency range (USP30 biochemical IC50 assay, IC50 ranges). In outline: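 Human recombinant USP30 (0.2 nM final) was preincubated 30 min with compound (25 μM to 1.3 nM, 10-point) in Tris pH 8.0, 1 mM GSH, BGG and Triton X-100. Ub-Rh110 was then added for 30 min at room temperature and stopped with citric acid. Fluorescence at 485/535 nm gave % inhibition and a 4-parameter IC50 fit.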

As for `CC(C)(C)c1cnc(NC(=O)[C@H]2CC[C@@H](NC#N)C2)s1` [Compound 12-7, (1S,3R)-N-(5-tert-butyl-1,3-thiazol-2-yl)-3-(cyanoamino)cyclopentane-1-carboxamide], the IC50 (commonly the concentration at which inhibition is half-maximal) was 1 to 10 µM.

Regarding `N#CN[C@H]1CCN(C(=O)c2csc(-c3cccc(Cl)c3Cl)n2)C1` [Compound 12-8, {[(3S)-1-[2-(2,3-dichlorophenyl)-1,3-thiazole-4-carbonyl]pyrolidin-3-yl]amino}carbonitrile], the IC50 fell in the range of 1 to 10 µM.

Turning to `N#CNC1CCN(C(=O)c2csc(-c3ccc(Cl)cc3Cl)n2)CC1` [Compound 12-9, ({1-[2-(2,4-dichlorophenyl)-1,3-thiazole-4-carbonyl]piperidin-4-yl}amino)carbonitrile], the concentration for half-maximal inhibition (IC50) was in the range of 1 to 10 µM.
